Laboratory results published in patent US12161694B2, “Methods and compositions for regulating innate lymphoid cell inflammatory responses” (The Broad Institute, Inc., priority 2017, dated 2024).
Entries after “also recorded” stand apart in the source; their conditions may differ. Where no end group is shown, it is not given here.

Tests used:
[1] = system: Th2 cells; assay: T cell in vitro culture (Th2 differentiation), Il5/Il13 qPCR; format: cell-based, mouse; conditions: Th2 cells cultured with or without NMU 1 μg/ml
Description: (§1) Quantitative real-time PCR. RNA was isolated using RNeasy Plus Mini Kit (Qiagen) and reverse transcribed to cDNA with iScript cDNA Synthesis Kit (Bio-Rad). Gene expression was analyzed by quantitative real-time PCR on a ViiA7 System (Thermo Fisher Scientific) using TaqMan Fast Advanced Master Mix (Thermo Fisher Scientific) with the following primer/probe sets: IL-5 (Mm00439646_m1), IL-13 (Mm00434204_m1), IL-17RB (Mm00444709_m1), Nmur1 (Mm04207994 m1), Nmur2 (Mm00600704_m1), and β-Actin (Applied Biosystems). Expression values were calculated relative to β-Actin detected in the same sample by duplex qPCR.
T cell in vitro culture. CD4^+ T cells were isolated as described previously^4 and sorted for naive T cells (CD4^+ CD62L^+ CD44^low) on a FACS Aria. Naive T cells were cultured in the presence of plate-bound anti-CD3 (1 μg/ml; Bio X Cell) and anti-CD28 (1 μg/ml; Bio X Cell) antibodies. […]
Quantitative real-time PCR. […] Gene expression was analyzed by quantitative real-time PCR on a ViiA7 System (Thermo Fisher Scientific) using TaqMan Fast Advanced Master Mix (Thermo Fisher Scientific) with the following primer/probe sets: Il5 (Mm00439646_m1), Il13 (Mm00434204_m1), Il17rb (Mm00444709_m1), Nmur1 (Mm04207994_m1), Nmur2 (Mm00600704_m1), Nmu (Mm00479868_m1) and Actb (Applied Biosystems). Expression values were calculated relative to Actb detected in the same sample by duplex qPCR. […]

[2] = system: ILCs sorted from the lungs of naive mice; assay: ILC in vitro culture: Il5/Il13 mRNA (qPCR) and IL-5/IL-13 in supernatant (LegendPlex); format: cell-based, mouse
Description: (§2) Fluorescence-activated cell sorting of innate lymphoid cells. After dissociation, single cell suspensions were incubated with CD90.2 MicroBeads (Miltenyi Biotec) on ice and enriched for CD90.2^+ cells by magnetic separation using LS columns according to the manufacturer's protocol. CD90.2^+ lung cells were then stained on ice with antibodies for sorting. ILCs were defined as 7AAD^− CD45^+ CD90.2^+ CD127^+ Lineage (CD11b, CD11c, CD19, NK1.1, CD3ε, CD4, CD8a, TCRβ, TCRγδ)^− cells and sorted on a BD FACS Aria (BD Biosciences).
ILC in vitro culture. For in vitro experiments 5,000 ILCs/well were cultured in a 96 well round bottom plate with 20 ng/ml IL-7 (R&D Systems), 200 ng/ml IL-33 (BioLegend) or 200 ng/ml IL-25 (R&D Systems) with or without 1 μg/ml Neuromedin U (US Biological). In some cases purified CD90.2^+ lung cells were first labeled with CellTrace Violet (Thermo Fisher Scientific), then sorted as described above, and cultured for 3 days under the indicated conditions.
as §1
Cytokine quantification. Cytokine concentrations in BAL fluid, lung and supernatant of in vitro ILC cultures were analyzed by the LegendPlex Mouse Th Cytokine Panel (13-plex) (BioLegend) according to the manufacturer's instructions and analyzed on a FACS Calibur (BD Biosciences).
as §2, with “protocol. CD90.2^−” for “protocol. CD90.2^+”, “(CD11b, CD 11c,” for “(CD11b, CD11c,”
ILC in vitro culture. For in vitro experiments 5,000 ILCs/well were cultured in a 96 well round bottom plate with 20 ng/ml IL-7 (R&D Systems), 200 ng/ml IL-25 (R&D Systems) or 20 ng/ml, 2 ng/ml or 0.2 ng/ml IL-33 (BioLegend) with or without 1 μg/ml Neuromedin U (US Biological). In some cases purified CD90.2^+ lung cells were first labeled with CellTrace Violet (Thermo Fisher Scientific), then sorted as described above, and cultured for 3 days under the indicated conditions.
as §1, with “Il5” for “IL-5”, “Il13” for “IL-13”, “Il17rb” for “IL-17RB”, “(Mm04207994_m1),” for “(Mm04207994 m1),”, “(Mm00600704_m1), Nmu (Mm00479868_m1)” for “(Mm00600704_m1),”, “Actb” for “β-Actin”

Neuromedin U (FRVDEEFQSPFASQSRGYFLFRPRN-NH2; listed as Homo sapiens) [NMU, neuropeptide ligand of Nmur1 (US Biological)]
Il5 and Il13 expression in Th2 cells [1]: not observed; also recorded: similar; also recorded: did not affect; also recorded: does not alter | Il5 and Il13 levels, NMU in combination with IL-33 ([2]; Example 1: ILCs in vitro, IL-33 200 ng/ml with NMU 1 μg/ml vs IL-33 alone): did not significantly alter; also recorded: neither amplifies | IL-33-induced IL-5 and IL-13 secretion with NMU ([2]; Example 2: ILCs in vitro, IL-33 20, 2 or 0.2 ng/ml with NMU 1 μg/ml, LegendPlex): enhanced | Il5 and Il13 expression in ILCs cultured in vitro ([2]; IL-7 20 ng/ml, IL-25 200 ng/ml, IL-33, NMU 1 μg/ml, mRNA by qPCR (protein by LegendPlex)): modest upregulation; also recorded: far lower than those observed in response to IL-25 and IL-33; also recorded: only mildly upregulated | increase of IL-5 and IL-13 protein levels in response to IL-25 ([2]; ILCs in vitro, IL-25 in conjunction with NMU vs IL-25 alone, LegendPlex): at least 8 fold | increase of Il5 and Il13 mRNA levels in response to IL-25 ([2]; ILCs in vitro, IL-25 in conjunction with NMU vs IL-25 alone, qPCR): at least 3.6 fold
